Assay results reported in publication PMC6953423 (Journal of medicinal chemistry, 2019).

Key:
rats = details: cited from earlier work; for seeking drugs of abuse (cocaine or methamphetamine) after a period of extinction: rats pretreated
Kinetic solubility = format: physicochemical; details: phosphate buffer, mean ± SD
[1] = cited from earlier work
CB1 [2] = target: T1, CB1 (Homo sapiens, UniProt P21554); assay: CB1 calcium mobilization assay; format: cell-based; details: IC50 relative to 2
P-gp (MDR1) = assay: in vitro; details: dog, MDCK-MDR1, pH 7.4
male Sprague-Dawley rats = assay: Drug-induced reinstatement of extinguished cocaine-seeking behavior; format: in vivo, rat; details: 10 mg/kg i.p. pretreatment, cocaine prime 10 mg/kg i.p., p > 0.05
CB1 [3] = target: T1, CB1; details: absence of CP55,940; up to 10 μM

T1 sequence (P21554 whole entry): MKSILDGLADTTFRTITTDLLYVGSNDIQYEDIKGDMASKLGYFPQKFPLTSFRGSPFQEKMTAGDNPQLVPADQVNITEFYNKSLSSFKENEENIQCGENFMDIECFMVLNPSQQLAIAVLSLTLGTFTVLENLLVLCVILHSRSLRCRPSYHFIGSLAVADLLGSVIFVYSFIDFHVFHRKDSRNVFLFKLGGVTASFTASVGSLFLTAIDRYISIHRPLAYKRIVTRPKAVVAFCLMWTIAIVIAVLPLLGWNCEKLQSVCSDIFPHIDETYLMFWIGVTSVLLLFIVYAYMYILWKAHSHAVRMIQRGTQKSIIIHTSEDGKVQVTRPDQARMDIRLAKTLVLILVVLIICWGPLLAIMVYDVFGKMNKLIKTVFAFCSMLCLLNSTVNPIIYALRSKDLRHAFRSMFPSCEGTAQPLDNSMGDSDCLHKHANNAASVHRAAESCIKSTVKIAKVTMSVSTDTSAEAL

Row | SMILES | seeking drugs of abuse (cocaine or methamphetamine) after a period of extinction (rats) | fold less potent than 2 in calcium assay (CB1 [2]) | other results
1 | CCc1c(C(=O)NCCc2ccc(N3CCCCC3)cc2)[nH]c2ccc(Cl)cc12 [Compound 1] | less likely to seek drugs of abuse | – | –
2 | O=C(Nc1ccc(Cl)cc1)Nc1cccc(-c2cccc(N3CCCC3)n2)c1 [Compound 2, 1-(4-chlorophenyl)-3-{3-[6-(pyrrolidin-1-yl)pyridin-2-yl]phenyl}urea] | less likely to seek drugs of abuse | – | solubility at 2 h (Kinetic solubility): < 1 µM
3 | N#Cc1ccc(NC(=O)Nc2cccc(-c3cccc(N4CCCC4)n3)c2)cc1 [Compound 3] | – | – | effect on THC in drug discrimination [1]: reduced THC’s potency
4 | O=C(Nc1ccc(Cl)cc1)Nc1cccc(-c2ccc(F)cc2)c1 [Compound 4] | less likely to seek drugs of abuse | – | prime-induced reinstatement of cocaine seeking (rats): attenuated prime-induced restatement of cocaine seeking
5 | O=C(Nc1ccc(Cl)cc1)Nc1cc(-c2ccccc2)ccn1 [Compound 7, 1‐(4‐Chlorophenyl)‐3‐(4‐phenylpyridin‐2‐yl)urea] | – | 4.7 fold | –
6 | O=C(Nc1ccc(Cl)cc1)Nc1cncc(-c2ccccc2)c1 [Compound 9, 1‐(4‐Chlorophenyl)‐3‐(5‐phenylpyridin‐3‐yl)urea] | – | 8.8 fold | –
7 | O=C(Nc1ccc(Cl)cc1)Nc1ccnc(-c2ccccc2)c1 [Compound 10, 1‐(4‐Chlorophenyl)‐3‐(2‐phenylpyridin‐4‐yl)urea] | – | 7.1 fold | –
8 | O=C(Nc1ccc(Cl)cc1)Nc1ccc(-c2ccccc2)s1 [Compound 11, 1‐(4‐Chlorophenyl)‐3‐(5‐phenylthiophen‐2‐yl)urea] | – | – | efflux ratio at 10 μM (P-gp (MDR1)): < 2.5; effect on drug-induced cocaine-seeking behavior (male Sprague-Dawley rats): failed to significantly reduce; inverse agonism (in words) (CB1 [3]): very little inverse agonism
